{
  "source": "patent US20100216875A1",
  "about": "“METHODS OF TREATING ALZHEIMER'S DISEASE” (priority 2006, published 2010)",
  "key": {"[1]": {"system": "Aβ40 production from endogenous APP in regulated secretory vesicles isolated from chromaffin cells", "assay": "Aβ production from endogenous APP in isolated regulated secretory vesicles", "format": "biochemical, bovine", "details": "inhibitor 10 μM", "protocol": "Regulated secretory vesicles isolated from chromaffin cells naturally produce Aβ from endogenous APP when incubated at 37° C. in vitro for several hours. These vesicles can be used as an in vitro screen for compounds that inhibit Aβ production. […] The effects of cathepsin B inhibitors, CA074 (10 μM, ♦) and CA074Me (10 μM, □), on the production of Aβ40 from endogenous APP in regulated secretory vesicles isolated from chromaffin cells was evaluated in time course studies. […] Each inhibitor was tested in triplicate; values represent x±sem (*statistically significant with p<0.05).\nCathepsin B compounds that were effective inhibitors of endogenous II-secretase activity were tested for inhibition of Aβ peptide production in regulated secretory vesicles. The effect of reversible cathepsin B compounds on production of Aβ40 and Aβ42 in isolated chromaffin vesicles was tested by incubating candidate inhibitors (at 10 μM) with lysed chromaffin vesicles under identical conditions as for the β-secretase assay for 8 hours. […] After incubation, Aβ40 and Aβ42 was measured by ELISA assays, as described for measurement of Aβ peptides in brain extracts. Each candidate inhibitor was assayed in triplicate."}, "[2]": {"system": "primary neuronal chromaffin cells", "assay": "Aβ secretion by primary neuronal chromaffin cell cultures", "format": "cell-based, bovine", "details": "50 μM for 18 hours", "protocol": "Neuronal bovine chromaffin cells in primary culture can be used to select compounds that affect Aβ in the regulated or constitutive pathway. Regulated secretory Aβ is determined by measuring Aβ in the cell culture media after inducing the cells to secrete using a triggering stimulus, such as KCl. The constitutive secretory Aβ is determined by measuring Aβ in cell culture media (also called “conditioned media”) from resting cells. […] Regulated secretion was induced by exposing the cells to KCl (50 mM) for 15 minutes. […] Treated cells (+) received CA074Me (50 μM) for 18 hours. The Aβ40 produced by regulated secretion of the treated cells is about 50% less than that produced from regulated secretion by untreated cells. […]\nReversible cathepsin B compounds that inhibited Aβ production in isolated secretory vesicles by at least 50% at 10 μM were tested for reduction of Aβ secreted from the regulated secretory pathway of primary neuronal chromaffin cells. […] Cells were incubated with inhibitors (first at 50 μM) for about 18 hours, and then KCl-induced secretion of Aβ from the regulated secretory pathway was analyzed, by incubating cells in 50 mM KCl for about 15 minutes and measurement of Aβ peptides in the secretion medium Inhibitor effects were more readily detected during increased rates of Aβ production, which can be induced by treatment of cells with PMA (phorbol myristate acetate, 100 nM). […]"}, "[3]": {"system": "β-secretase activity as measured by the APP-derived CTFβ fragment", "assay": "guinea pig brain CTFβ (β-secretase activity) after icv infusion", "format": "in vivo", "details": "0.15 mg/kg/day infused for 7 days; western blot", "protocol": "To better evaluate the effects of CA074Me on β-secretase activity, relative brain levels of CTRβ were assessed by western blots. The CTRβ fragment results from processing of APP at the β-secretase site, which produces the C-terminal β-secretase fragment (CTFβ) of 12 kDA on SDS-PAGE gels.\nBrains from animals described in relation to FIG. 10 were extracted and analyzed for CTFβ by […].\nCathepsin B inhibitors were administered directly into the brain by icy infusion with minipumps in time course studies at different doses. Guinea pigs were infused with compounds using Alzet pumps (2.5 μl/hr, with compounds at 1 mg/ml in saline) for 7 and 30 days, and other times. This initial dose of compound was selected because E64d and CA074Me are effective at this dose. Each treatment group consisted of eight to ten guinea pigs, including the vehicle control group."}, "[4]": {"system": "primary neuronal chromaffin cells", "details": "cited from earlier work"}, "[5]": {"details": "healthy young males, cited from earlier work"}, "[6]": {"details": "mice, rats and dogs; cited from earlier work"}},
  "note": "Entries after “also recorded” stand apart in the source; their conditions may differ.",
  "data": [
    {"smiles": "CCCNC(=O)[C@H]1O[C@@H]1C(=O)N[C@H](C(=O)N1CCC[C@H]1C(=O)OC)[C@@H](C)CC", "note": "[CA074Me]", "values": [
      {"measurement": "effect on Aβ production in isolated regulated secretory vesicles", "setting": "[1]", "result": "inhibited; also recorded: block Aβ production"},
      {"measurement": "reduction of Aβ40 produced by regulated secretion", "setting": "[2]; KCl (50 mM) 15 minutes, vs untreated cells", "result": "about 50%"},
      {"measurement": "Aβ40 produced by constitutive secretion vs untreated cells", "setting": "[2]; resting cells", "result": "the same"},
      {"measurement": "decrease in the amount of brain CTFβ", "setting": "[3]", "result": 50, "unit": "%"},
      {"measurement": "CTFβ production in primary chromaffin cell cultures", "setting": "[4]", "result": "reduced CTFβ production"}
    ]},
    {"smiles": "CCOC(=O)[C@H]1O[C@@H]1C(=O)N[C@@H](CC(C)C)C(=O)NCCC(C)C", "note": "[E64d]", "values": [
      {"measurement": "pulse, resting blood pressure, body temperature, grip force", "setting": "[5]; 5 mg/kg/day oral", "result": "No change"},
      {"measurement": "subjective or objective symptoms, clinical tests", "setting": "[5]; 5 mg/kg/day oral", "result": "no change in subjective or objective symptoms or clinical tests"},
      {"measurement": "absorption", "setting": "[5]; oral", "result": "good absorption"},
      {"measurement": "accumulation", "setting": "[5]; oral", "result": "no accumulation occurred"},
      {"measurement": "total dose collected in urine", "setting": "[5]; oral", "result": "about 30%"},
      {"measurement": "therapeutic window / LD50", "setting": "[6]", "result": "excellent therapeutic window"}
    ]}
  ]
}
